Laboratory results taken from ChEMBL document CHEMBL4270670 (J Med Chem, 2018).

What was measured:
in vitro [1] = settings: chicken, chicken embryo fibroblasts
Influenza B virus = settings: mdck
in vitro [2] = settings: dog, MDCK cells
Influenza A virus [3] = assay: microbe, parasite or virus in culture; settings: A/Puerto Rico/8/1934(H1N1), MDCK, 48 h
Influenza A virus [4] = assay: microbe, parasite or virus in culture; settings: MDCK, 48 h
[5] = MRT (0 to infinity) in Sprague-Dawley rat at 20 mg/kg, po by LC-MS analysis; assay type: ADME, organism-based; settings: in vivo
Rattus norvegicus [6] = assay: Half life in Sprague-Dawley rat at 20 mg/kg, po by LC-MS analysis; assay type: ADME, organism-based; settings: in vivo
Rattus norvegicus [7] = assay: Tmax in Sprague-Dawley rat at 20 mg/kg, po by LC-MS analysis; assay type: ADME, organism-based; settings: in vivo
Rattus norvegicus [8] = assay: Cmax in Sprague-Dawley rat at 20 mg/kg, po by LC-MS analysis; assay type: ADME, organism-based; parameters: dose 20 mg/kg, route oral; settings: in vivo
[9] = Oral bioavailability in Sprague-Dawley rat at 20 mg/kg by LC-MS analysis; assay type: ADME, organism-based; settings: in vivo
Rattus norvegicus [10] = species on record: Rattus norvegicus; settings: in vivo, po, 20 mg/kg
in vivo = settings: Sprague-Dawley, rat, po, 20 mg/kg

## CCC(CC)O[C@@H]1C=C(C(=O)O)C[C@H](NCc2ccc(-c3ccc4sccc4c3)cc2)[C@H]1NC(C)=O
In vitro [1]
  CC50 at 48 h: > 200 µM

## CCC(CC)O[C@@H]1C=C(C(=O)O)C[C@H](NCc2ccc(Sc3cccs3)cc2)[C@H]1NC(C)=O
Influenza B virus
  EC50: 8.5 µM
In vitro [1]
  CC50 at 48 h: > 200 µM
In vitro [2]
  CC50 at 48 h: > 250 µM
Influenza A virus [3]
  EC50: 0.04 µM
Influenza A virus [4]
  EC50: 79 µM

## CCC(CC)O[C@@H]1C=C(C(=O)O)C[C@H](NCc2ccc(OC(C)C)cc2)[C@H]1NC(C)=O
In vitro [1]
  CC50 at 48 h: > 200 µM

## CCC(CC)O[C@@H]1C=C(C(=O)O)C[C@H](NCc2cccc(-c3ccc(SC)cc3)c2)[C@H]1NC(C)=O
In vitro [1]
  CC50 at 48 h: > 200 µM

## CCC(CC)O[C@@H]1C=C(C(=O)O)C[C@H](NCc2ccc(Cc3ccccc3)cc2)[C@H]1NC(C)=O
In vitro [1]
  CC50 at 48 h: > 200 µM

## CCOC(=O)C1=C[C@@H](OC(CC)CC)[C@H](NC(C)=O)[C@@H](NCc2ccc(Sc3ccccc3)cc2)C1
[5]
  MRT inf: 17.1 h
Rattus norvegicus [6]
  t1/2: 8.68 h
Rattus norvegicus [7]
  Tmax: 0.57 h
Rattus norvegicus [8]
  Cmax: 445.6 µg/mL
[9]
  bioavailability: 7.1%
Rattus norvegicus [10]
  AUC: 1.59462 µg·h/mL
In vivo
  AUC(0-t): 1.04 µg·h/mL

## CCC(CC)O[C@@H]1C=C(C(=O)O)C[C@H](NCc2cccc(SC(C)CC)c2)[C@H]1NC(C)=O (stereo partly drawn)
In vitro [1]
  CC50 at 48 h: > 200 µM

## CCC(CC)O[C@@H]1C=C(C(=O)O)C[C@H](NCc2cccc(OC)c2)[C@H]1NC(C)=O
In vitro [1]
  CC50 at 48 h: > 200 µM

## CCC(CC)O[C@@H]1C=C(C(=O)O)C[C@H](NCc2cccc(SC3CCCC3)c2)[C@H]1NC(C)=O
In vitro [1]
  CC50 at 48 h: > 200 µM

## CCC(CC)O[C@@H]1C=C(C(=O)O)C[C@H](NCc2ccc(Oc3ccccc3)cc2)[C@H]1NC(C)=O
In vitro [1]
  CC50 at 48 h: > 200 µM

## CCC(CC)O[C@@H]1C=C(C(=O)O)C[C@H](NCc2ccc(C(=O)c3ccccc3)cc2)[C@H]1NC(C)=O
In vitro [1]
  CC50 at 48 h: > 200 µM

## CCC(CC)O[C@@H]1C=C(C(=O)O)C[C@H](NCc2ccc(-c3cc4ccccc4s3)cc2)[C@H]1NC(C)=O
Influenza B virus
  EC50: > 100 µM
In vitro [1]
  CC50 at 48 h: > 200 µM
In vitro [2]
  CC50 at 48 h: > 250 µM
Influenza A virus [3]
  EC50: 7.2 µM
Influenza A virus [4]
  EC50: > 100 µM

## CCC(CC)Oc1ccc(CN[C@H]2CC(C(=O)O)=C[C@@H](OC(CC)CC)[C@@H]2NC(C)=O)cc1
Influenza B virus
  EC50: > 100 µM
In vitro [1]
  CC50 at 48 h: > 200 µM
In vitro [2]
  CC50 at 48 h: > 250 µM
Influenza A virus [3]
  EC50: 13 µM
Influenza A virus [4]
  EC50: > 100 µM

## CCc1ccc(CN[C@H]2CC(C(=O)O)=C[C@@H](OC(CC)CC)[C@@H]2NC(C)=O)cc1
In vitro [1]
  CC50 at 48 h: > 200 µM

## CCC(CC)O[C@@H]1C=C(C(=O)O)C[C@H](NCc2ccc(SC(C)CC)cc2)[C@H]1NC(C)=O (stereo partly drawn)
In vitro [1]
  CC50 at 48 h: > 200 µM
